Numbers after ± are expanded uncertainties.
Conditions: Liquid; for mass density: vibrating tube; for viscosity: Stony Brook Scientific falling needle HPHTV-100 viscometer

CCCCn1cc[n+](C)c1.F[B-](F)(F)F [1-butyl-3-methylimidazolium tetrafluoroborate]
mass density (303.15 K, 8000 kPa): 1201.78 ± 0.98 kg/m3 | viscosity (303.15 K, 8180 kPa): 88.3 ± 9.7 mPa·s | mass density (303.15 K, 10000 kPa): 1202.7 ± 0.98 kg/m3 | viscosity (303.15 K, 10200 kPa): 89.8 ± 9.9 mPa·s | mass density (303.15 K, 12000 kPa): 1203.62 ± 0.98 kg/m3 | viscosity (303.15 K, 12110 kPa): 91 ± 9.6 mPa·s | mass density (303.15 K, 14000 kPa): 1204.52 ± 0.98 kg/m3 | viscosity (303.15 K, 14200 kPa): 92.5 ± 10 mPa·s | viscosity (303.15 K, 14290 kPa): 91.7 ± 10 mPa·s | mass density (303.15 K, 20000 kPa): 1207.18 ± 0.98 kg/m3 | mass density (303.15 K, 30000 kPa): 1211.54 ± 0.98 kg/m3 | mass density (303.15 K, 40000 kPa): 1215.79 ± 0.98 kg/m3 | mass density (303.15 K, 50000 kPa): 1219.9 ± 0.99 kg/m3 | mass density (303.15 K, 60000 kPa): 1223.89 ± 0.99 kg/m3 | mass density (308.15 K, 100 kPa): 1194.52 ± 0.98 kg/m3 | mass density (308.15 K, 2000 kPa): 1195.44 ± 0.98 kg/m3 | mass density (308.15 K, 4000 kPa): 1196.38 ± 0.98 kg/m3 | mass density (308.15 K, 6000 kPa): 1197.34 ± 0.97 kg/m3 | mass density (308.15 K, 8000 kPa): 1198.26 ± 0.98 kg/m3 | mass density (308.15 K, 10000 kPa): 1199.2 ± 0.97 kg/m3 | mass density (308.15 K, 12000 kPa): 1200.1 ± 0.98 kg/m3 | mass density (308.15 K, 14000 kPa): 1201.03 ± 1 kg/m3 | mass density (308.15 K, 20000 kPa): 1203.74 ± 0.97 kg/m3 | mass density (308.15 K, 30000 kPa): 1208.15 ± 0.97 kg/m3 | mass density (308.15 K, 40000 kPa): 1212.4 ± 0.98 kg/m3 | mass density (308.15 K, 50000 kPa): 1216.54 ± 0.98 kg/m3 | mass density (308.15 K, 60000 kPa): 1220.57 ± 0.98 kg/m3 | mass density (313.15 K, 100 kPa): 1191.01 ± 0.97 kg/m3 | mass density (313.15 K, 2000 kPa): 1191.92 ± 0.97 kg/m3 | mass density (313.15 K, 4000 kPa): 1192.9 ± 0.97 kg/m3 | mass density (313.15 K, 6000 kPa): 1193.86 ± 0.97 kg/m3 | mass density (313.15 K, 8000 kPa): 1194.8 ± 0.97 kg/m3 | mass density (313.15 K, 10000 kPa): 1195.75 ± 0.97 kg/m3 | mass density (313.15 K, 12000 kPa): 1196.67 ± 0.97 kg/m3 | mass density (313.15 K, 14000 kPa): 1197.1 ± 1 kg/m3 | mass density (313.15 K, 20000 kPa): 1200.34 ± 0.97 kg/m3 | mass density (313.15 K, 30000 kPa): 1204.81 ± 0.97 kg/m3 | mass density (313.15 K, 40000 kPa): 1209.11 ± 0.97 kg/m3 | mass density (313.15 K, 50000 kPa): 1213.28 ± 0.97 kg/m3 | mass density (313.15 K, 60000 kPa): 1217.34 ± 0.97 kg/m3 | viscosity (313.45 K, 14310 kPa): 59.4 ± 6.4 mPa·s | viscosity (313.55 K, 120 kPa): 51.2 ± 5.5 mPa·s | viscosity (313.55 K, 710 kPa): 51.7 ± 5.6 mPa·s | viscosity (313.55 K, 1650 kPa): 52.3 ± 5.7 mPa·s | viscosity (313.55 K, 2690 kPa): 52.5 ± 5.7 mPa·s | viscosity (313.55 K, 4250 kPa): 53.4 ± 5.8 mPa·s | viscosity (313.55 K, 6260 kPa): 54.3 ± 5.9 mPa·s | viscosity (313.55 K, 8200 kPa): 54.9 ± 6 mPa·s | viscosity (313.55 K, 10200 kPa): 56.2 ± 6.1 mPa·s | mass density (318.15 K, 100 kPa): 1187.48 ± 0.97 kg/m3 | mass density (318.15 K, 2000 kPa): 1188.43 ± 0.97 kg/m3 | mass density (318.15 K, 4000 kPa): 1189.42 ± 0.97 kg/m3 | mass density (318.15 K, 6000 kPa): 1190.39 ± 0.97 kg/m3 | mass density (318.15 K, 8000 kPa): 1191.39 ± 0.97 kg/m3 | mass density (318.15 K, 10000 kPa): 1192.31 ± 0.97 kg/m3 | mass density (318.15 K, 12000 kPa): 1193.27 ± 0.97 kg/m3 | mass density (318.15 K, 14000 kPa): 1194.22 ± 0.93 kg/m3 | mass density (318.15 K, 20000 kPa): 1196.98 ± 0.97 kg/m3 | mass density (318.15 K, 30000 kPa): 1201.46 ± 0.97 kg/m3 | mass density (318.15 K, 40000 kPa): 1205.83 ± 0.97 kg/m3 | mass density (318.15 K, 50000 kPa): 1210.05 ± 0.97 kg/m3 | mass density (318.15 K, 60000 kPa): 1214.15 ± 0.97 kg/m3 | mass density (323.15 K, 100 kPa): 1184 ± 0.97 kg/m3 | mass density (323.15 K, 2000 kPa): 1184.97 ± 0.97 kg/m3 | mass density (323.15 K, 4000 kPa): 1185.97 ± 0.97 kg/m3 | mass density (323.15 K, 6000 kPa): 1186.94 ± 0.97 kg/m3 | mass density (323.15 K, 8000 kPa): 1187.91 ± 0.97 kg/m3 | mass density (323.15 K, 10000 kPa): 1188.88 ± 0.97 kg/m3 | mass density (323.15 K, 12000 kPa): 1189.84 ± 0.97 kg/m3 | mass density (323.15 K, 14000 kPa): 1190.78 ± 0.97 kg/m3 | mass density (323.15 K, 20000 kPa): 1193.6 ± 0.97 kg/m3 | mass density (323.15 K, 30000 kPa): 1198.15 ± 0.97 kg/m3 | mass density (323.15 K, 40000 kPa): 1202.55 ± 0.97 kg/m3 | mass density (323.15 K, 50000 kPa): 1206.8 ± 0.98 kg/m3 | mass density (323.15 K, 60000 kPa): 1210.94 ± 0.97 kg/m3 | viscosity (324.8 K, 630 kPa): 34.5 ± 3.8 mPa·s | viscosity (324.82 K, 120 kPa): 34.3 ± 3.7 mPa·s | viscosity (324.85 K, 1700 kPa): 34.8 ± 3.8 mPa·s | viscosity (324.85 K, 2590 kPa): 35.2 ± 3.8 mPa·s | viscosity (324.85 K, 4050 kPa): 35.3 ± 3.9 mPa·s | viscosity (324.85 K, 4260 kPa): 35.8 ± 3.9 mPa·s | viscosity (324.85 K, 6160 kPa): 36.5 ± 4 mPa·s | viscosity (324.85 K, 8160 kPa): 36.7 ± 4 mPa·s | viscosity (324.85 K, 10450 kPa): 37.5 ± 4.1 mPa·s | viscosity (324.85 K, 12130 kPa): 38.4 ± 4.2 mPa·s | viscosity (324.85 K, 14150 kPa): 39 ± 4.3 mPa·s
